Measured values taken from US12552738B2, “Crystal forms of amino lipids” (ModernaTX, Inc., priority 2017, dated 2026).
Entries after “also recorded” stand apart in the source; their conditions may differ. Each block holds one molecule with its values, some of them ahead of it.

Assays:
Format in all cases: physicochemical
free base pKa = assay: free base pKa
[1] = Dynamic vapor sorption (DVS) isotherm, hygroscopicity; conditions: for water uptake, adsorption isotherm / water uptake, desorption isotherm: 80% relative humidity, 25° C.; for Hygroscopicity/purity decrease: MC3 and MC3 trimesate, water uptake up to 80% RH at 25° C.; for Hygroscopicity / form change after DVS: salts or cocrystals of Compound 1; for Hygroscopicity: DVS isotherm at 25° C.; for form change after DVS: XRPD before and after DVS test at 25° C.
Procedure: DVS was measured on via a SMS (Surface Measurement Systems) DVS Intrinsic. The relative humidity at 25° C. were calibrated against deliquescence point of LiCl, Mg(NO3)2 and KCl.

[2] = HPLC purity before and after the DVS experiment; conditions: samples prepared with crude and purified free base
Procedure: Trimesate Type A samples were prepared according to the procedure described in the foregoing, using the crude free base (HPLC purity of 88.5 area %) or purified free base (HPLC purity of 97.6 area %) as starting material, and analyzed by HPLC.

[3] = listed as 4-hydroxybenzoate Polymorph A
[4] = listed as trimellitate Polymorph A

pKa (free base pKa): > 8
water uptake, adsorption isotherm ([1]; listed as crude free base): 0.24%
water uptake, adsorption isotherm ([1]; listed as pure free base): 0.14%
water uptake, desorption isotherm ([1]; listed as crude free base): 0.27%
water uptake, desorption isotherm ([1]; listed as pure free base): 0.17%
Hygroscopicity/purity decrease ([1]; listed as crude free base): slightly hygroscopic
Molecule: CCCCC/C=C\C/C=C\CCCCCCCCC(CCCCCCCC/C=C\C/C=C\CCCCC)OC(=O)CCCN(C)C [MC3, (6Z,9Z,28Z,31Z)-heptatriaconta-6,9,28,31-tetraen-19-yl 4-(dimethylamino)butanoate, reference compound]

Molecule: (6Z,9Z,28Z,31Z)-heptatriaconta-6,9,28,31-tetraen-19-yl 4-(dimethylamino)butanoate trimesate [Trimesate Type A]
HPLC purity change after the DVS experiment [2]: No significant HPLC purity change
Hygroscopicity/purity decrease [1]: Non-hygroscopic
Hygroscopicity/purity decrease ([1]; listed as trimesate Type A): non-hygroscopic (Hygroscopicity concluded using the water uptake up to 80% RH at 25° C.: < 0.2% for non-hygroscopic)
Hygroscopicity/purity decrease ([1]; listed as trimesate of MC3): non-hygroscopic (Hygroscopicity concluded using the water uptake up to 80% RH at 25° C.: < 0.2% for non-hygroscopic)

Molecule: heptadecan-9-yl 8-((2-hydroxyethyl)amino)octanoate 4-hydroxybenzoate [4-Hydroxybenzoate Polymorph A]
Hygroscopicity [1]: Non-hygroscopic
Hygroscopicity [1, 3]: non-hygroscopic
Hygroscopicity ([1]; listed as 4-hydroxybenzoate of Compound 1): non-hygroscopic
Hygroscopicity ([1]; listed as Polymorph A of 4-hydroxybenzoate of Compound 1): low hygroscopicity
form change after DVS [1]: (no)
form change after DVS [1, 3]: no form change

Molecule: heptadecan-9-yl 8-((2-hydroxyethyl)amino)octanoate orotate [Orotate Polymorph B]
Hygroscopicity [1]: slightly hygroscopic; also recorded: Hygroscopic

Molecule: heptadecan-9-yl 8-((2-hydroxyethyl)amino)octanoate trimellitate [Trimellitate Polymorph A]
Hygroscopicity [1]: Slightly hygroscopic
Hygroscopicity [1, 4]: slightly hygroscopic
form change after DVS [1]: (no)
form change after DVS [1, 4]: no form change
